The values that follow come from paper PMC11694061 (Cancer Research, 2024).

SMILES strings stand for the structures. Where two headings read alike, the source gives them in different places.

Assay [1] has as its system MIA PaCa-2 cells. The assay is described as follows: Proliferation, MIA PaCa-2 (2D). In kind it is cell-based. Particulars: Homo sapiens, MIA PaCa-2, 72 hours. The protocol: (§1) Cells were inoculated onto 96-well plates and treated with compounds in serial dilutions for 3 or 5 days. […] The cell viability of primary patient samples was tested using the CellTiter-Glo Luminescent Assay kit (G7573, Promega) according to the manufacturer’s instructions. […] The optical density (OD) values were obtained using a SPARK microplate reader (Tecan). IC50 was calculated using GraphPad Prism 8.0.2 (nonlinear regression analysis with four parameters). Drug synergy was evaluated with combination index (CI) values using CalcuSyn Demo Version 2.0 software. CI > 1 indicates antagonism, CI < 1 indicates synergy, and CI = 1 indicates additivity.

Assay [2] deals with MIA PaCa-2/R cells. The assay is described as follows: Proliferation, MIA PaCa-2/R (2D). The format is cell-based. As to conditions: Homo sapiens, MIA PaCa-2/R (AMG510-resistant), 72 hours. The procedure:
as §1

The subject of assay [3] is NCI-H358 cells (KRAS^G12C). Nature of the assay: 3D growth inhibition, NCI-H358. In kind it is cell-based. As to conditions: Homo sapiens, NCI-H358, 120 h, read-out: IC50 (3D culture), NCI-H358. The protocol: (§2) Cells were inoculated onto 96-well plates and treated with compounds in serial dilutions for 3 or 5 days. Cell viability was assessed using sulforhodamine B (230162, Sigma-Aldrich) assay and methyl thiazolyl tetrazolium (M5655, Sigma-Aldrich) assay for adherent and suspended cells, respectively, in accordance with previously described methods ([48]). The cell viability of primary patient samples was tested using the CellTiter-Glo Luminescent Assay kit (G7573, Promega) according to the manufacturer’s instructions. Three-dimensional cultivation was conducted in 96-well ultralow attachment plates (7007, Corning). The optical density (OD) values were obtained using a SPARK microplate reader (Tecan). IC50 was calculated using GraphPad Prism 8.0.2 (nonlinear regression analysis with four parameters). Drug synergy was evaluated with combination index (CI) values using CalcuSyn Demo Version 2.0 software. CI > 1 indicates antagonism, CI < 1 indicates synergy, and CI = 1 indicates additivity.

The test system of assay [4] is SW620 cells (G12V). The assay is described as follows: 3D growth inhibition, SW620. In kind it is cell-based. As to conditions: Homo sapiens, SW-620, 120 h, read-out: IC50 (3D culture), SW620. The procedure:
as §2

Assay [5] has as its system HPAF-II cells (KRAS^G12D). The assay is described as follows: 3D growth inhibition, HPAF-II. The format is cell-based. As to conditions: Homo sapiens, 120 h, read-out: IC50 (3D culture), HPAF-II. The procedure: as §2
Assay [6] has as its system K562 cells. The assay is described as follows: Proliferation, K562. Particulars: Homo sapiens. The format is cell-based, human. The protocol: as §1
In assay [7] the test system is BxPC-3 cells (KRAS-WT). Nature of the assay: 3D growth inhibition, BxPC-3. The format is cell-based. Particulars: Homo sapiens, BXPC-3, 120 h, read-out: IC50 (3D culture), BxPC-3. The protocol:
as §2

Assay [8] deals with 293T cells (KRAS-WT). Nature of the assay: 3D growth inhibition, 293T. As to conditions: Homo sapiens, HEK-293T, 120 h, read-out: IC50 (3D culture), 293T. In kind it is cell-based. The procedure: as §2
Assay [9] concerns GP2d cells (KRAS^G12D). Nature of the assay: 3D growth inhibition, GP2d. In kind it is cell-based. As to conditions: Homo sapiens, 120 h, read-out: IC50 (3D culture), GP2d. The procedure:
as §2

Assay [10] concerns MIA PaCa-2 xenografts (KRAS^G12C). Nature of the assay: MIA PaCa-2 xenograft. As to conditions: BI-3406 50 mg/kg twice daily, end of 24-day period. In kind it is in vivo, mouse. The protocol:
(§3) Animal experiments were carried out following the guidelines of the Institutional Animal Care and Use Committee of Shanghai Institute of Materia Medica, Chinese Academy of Sciences, and Lingang Laboratory. […] All mice were raised till the tumor volumes reached approximately 100 mm^3 and were randomly assigned to either the vehicle or treated groups (n = 5/group). […] Body weights and tumor sizes of mice were recorded every 3 days. Tumor volumes were calculated as follows: ½ × length × width^2. On the final day of the experiment, the mice were euthanized and tumor samples were prepared for Western blot analysis.

The target of assay [11] is T1, SOS1 in K562 cells (Homo sapiens, UniProt Q07889).
T1 construct: endogenous in cells; host or cells: K562
T1 sequence (Q07889 1-1333): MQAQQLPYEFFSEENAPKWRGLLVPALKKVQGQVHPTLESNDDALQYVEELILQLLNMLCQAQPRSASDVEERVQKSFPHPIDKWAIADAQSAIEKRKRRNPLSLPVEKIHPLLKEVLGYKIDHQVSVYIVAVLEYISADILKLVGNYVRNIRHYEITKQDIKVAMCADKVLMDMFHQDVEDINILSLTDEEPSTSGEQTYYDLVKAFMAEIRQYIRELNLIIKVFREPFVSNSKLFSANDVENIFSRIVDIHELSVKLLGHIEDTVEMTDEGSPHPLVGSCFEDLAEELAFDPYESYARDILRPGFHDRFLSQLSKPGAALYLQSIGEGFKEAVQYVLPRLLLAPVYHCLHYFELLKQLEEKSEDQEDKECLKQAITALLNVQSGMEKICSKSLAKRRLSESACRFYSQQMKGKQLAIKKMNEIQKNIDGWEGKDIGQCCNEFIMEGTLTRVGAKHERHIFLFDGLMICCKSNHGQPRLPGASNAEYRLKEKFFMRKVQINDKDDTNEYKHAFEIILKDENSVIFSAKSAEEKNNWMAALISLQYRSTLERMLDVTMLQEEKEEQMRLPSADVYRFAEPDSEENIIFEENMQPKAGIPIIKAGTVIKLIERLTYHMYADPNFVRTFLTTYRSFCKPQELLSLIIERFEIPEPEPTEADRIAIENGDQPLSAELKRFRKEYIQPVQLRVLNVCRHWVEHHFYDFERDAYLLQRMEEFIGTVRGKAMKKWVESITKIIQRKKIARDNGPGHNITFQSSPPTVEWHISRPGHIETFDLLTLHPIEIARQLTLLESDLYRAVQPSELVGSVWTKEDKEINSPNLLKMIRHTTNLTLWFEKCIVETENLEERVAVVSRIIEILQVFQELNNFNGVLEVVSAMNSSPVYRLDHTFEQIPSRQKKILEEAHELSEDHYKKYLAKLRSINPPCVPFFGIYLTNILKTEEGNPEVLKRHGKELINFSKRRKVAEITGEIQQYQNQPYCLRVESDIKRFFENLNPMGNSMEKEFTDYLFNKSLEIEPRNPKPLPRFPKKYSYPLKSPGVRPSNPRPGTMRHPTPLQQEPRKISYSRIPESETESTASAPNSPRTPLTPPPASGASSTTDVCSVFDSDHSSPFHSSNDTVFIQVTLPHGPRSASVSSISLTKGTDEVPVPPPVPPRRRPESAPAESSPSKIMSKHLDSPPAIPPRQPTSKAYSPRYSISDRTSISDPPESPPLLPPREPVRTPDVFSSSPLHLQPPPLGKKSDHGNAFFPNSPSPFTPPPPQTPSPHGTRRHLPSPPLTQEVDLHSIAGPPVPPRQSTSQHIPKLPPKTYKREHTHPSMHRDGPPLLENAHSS
Nature of the assay: SOS1 degradation in K562 cells (Western blot). In kind it is cell-based. The source says:
After treatment, the cells were harvested with SDS lysis buffer, and SDS-PAGE gels were used to split the proteins in the lysate solutions. […] AB_2758039).

Assay [12] deals with K562 xenografts. Nature of the assay: K562 xenograft. In kind it is in vivo. Particulars: imatinib (100 mg/kg) monotherapy, orally daily. The protocol:
as §3

[13] abbreviates: K562, Table S1 screening, read-out: IC50 (cell proliferation inhibition in K562 cells).

With `C=CC(=O)N1CCN(c2nc(=O)n(-c3c(C)ccnc3C(C)C)c3nc(-c4c(O)cccc4F)c(F)cc23)[C@@H](C)C1` [AMG510, sotorasib], the IC50 in assay [1] worked out at 25 nM; in assay [2] it was 590000 nM.
For `COc1cc2nc(C)nc(N[C@H](C)c3cc(N)cc(C(F)(F)F)c3)c2cc1O[C@H]1CCOC1` [BI-3406], the IC50 in [3] was 11 nM; in assay [4], 18 nM; in assay [5] it was 61.9 nM; in [6] (K562, read-out: IC50 (cell proliferation inhibition in K562 cells)) it was 199 ± 32 nM; in assay [7] it was 692 nM; in assay [8] it was over 10000 nM. Also, the IC50 in assay [9] came out at 4.1 nM. Further, in assay [10], the tumor growth inhibition worked out at 62.0%.
`COc1cc2nc(C)nc(N[C@H](C)c3cc(N)cc(C(F)(F)F)c3)c2cc1OC1CCN(C(=O)CCCCCCCCSc2cccc3c2CN(C2CCC(=O)NC2=O)C3=O)CC1` (some centres unmarked) [SIAIS562080]: the IC50 in assay [6] (setting [13]) was determined as 4950 ± 412 nM. For the same compound, in assay [11], the percent SOS1 degradation at 0.1 µM is -46.9 ± 11% and the percent SOS1 degradation at 1 µM is 5.5 ± 3.2%.
For `COc1cc2nc(C)nc(N[C@H](C)c3cc(N)cc(C(F)(F)F)c3)c2cc1O[C@H]1CCN(C(=O)CCCCCCCCCCCSc2cccc3c2CN(C2CCC(=O)NC2=O)C3=O)C1` (some centres unmarked) [SIAIS562082], the IC50 in [6] (setting [13]) was found to be 4680 ± 1210 nM. In [11], the percent SOS1 degradation at 0.1 µM turned out to be 21.3 ± 0.5% and the percent SOS1 degradation at 1 µM came to 71 ± 1.6%.
With `COc1cc2nc(C)nc(N[C@H](C)c3cc(N)cc(C(F)(F)F)c3)c2cc1OC1CCN(C(=O)CCCCCCCCCCCSc2cccc3c2CN(C2CCC(=O)NC2=O)C3=O)CC1` (some centres unmarked) [SIAIS562083], the IC50 in assay [6] (setting [13]) stood at 4130 ± 340 nM. Also, in assay [11], the percent SOS1 degradation at 0.1 µM was -5.4 ± 2.2% and the percent SOS1 degradation at 1 µM amounted to 35.5 ± 1%.
In [12], `Cc1ccc(NC(=O)c2ccc(CN3CCN(C)CC3)cc2)cc1Nc1nccc(-c2cccnc2)n1` [imatinib] showed a TGI of 50.9%.
